US20220273678A1 (priority 2020, published 2022)

Legend:
SARS-CoV-2 Delta variant [1] = type: cell-based; conditions: 1000 nM Mito-MES; 1000 nM dTPP; CoQ10 1000-2000 nM
SARS-CoV-2 Beta variant [2] = type: cell-based; conditions: for antiviral activity against Beta variant, viral titer assay: hACE2 HEK293T, 1000 nM dTPP, CoQ10 1000-2000 nM
SARS-CoV-2 Beta = experiment: microbe, parasite or virus in culture; type: cell-based; conditions: Severe acute respiratory syndrome coronavirus 2, Calu-3
SARS-CoV-2 Beta variant [3] = tested on: SARS-CoV-2 Beta variant; parameters: species or system mice; conditions: mouse, in vivo
SARS-CoV-2 Delta variant [4] = tested on: SARS-CoV-2 Delta variant; parameters: species or system mice; conditions: mouse, in vivo
SARS-CoV-2 Delta variant [5] = experiment: microbe, parasite or virus in culture; type: cell-based; conditions: Severe acute respiratory syndrome coronavirus 2, Calu-3

SMILES | antiviral activity against Delta variant in ALI lung cultures (SARS-CoV-2 Delta variant [1]) | antiviral activity against Beta variant, viral titer assay (SARS-CoV-2 Beta variant [2]) | IC50 (SARS-CoV-2 Beta) [nM] | IL-lb, IL-6, TNFa in the lung (SARS-CoV-2 Beta variant [3]) | cleaved caspase 3 in lung, immunofluorescence (SARS-CoV-2 Beta variant [3]) | frequency of NK cells in lungs (SARS-CoV-2 Beta variant [3]) | histopathology: lung inflammation and tissue damage (SARS-CoV-2 Beta variant [3]) | time-of-addition study, intracellular N protein (SARS-CoV-2 Beta variant [2]) | SARS-CoV-2 N protein in lungs, ELISA (SARS-CoV-2 Delta variant [4]) | reduction of viral titer relative to vehicle (SARS-CoV-2 Delta variant [4]; po, 20 mg/kg) [log units] | IC50 (SARS-CoV-2 Delta variant [5]) [nM]
COC1=C(OC)C(=O)C(C/C=C(\C)CC/C=C(\C)CC/C=C(\C)CC/C=C(\C)CC/C=C(\C)CC/C=C(\C)CC/C=C(\C)CC/C=C(\C)CC/C=C(\C)CCC=C(C)C)=C(C)C1=O [CoQ10, Coenzyme Q10] | only higher concentrations (1000-2000 nM) | only higher concentrations (1000-2000 nM) |  |  |  |  |  |  |  |  | 
COC1=C(OC)C(=O)C(CCCCCCCCCC[P+](c2ccccc2)(c2ccccc2)c2ccccc2)=C(C)C1=O.CS(=O)(=O)[O-] [Mito-MES, 10-(4,5-dimethoxy-2-methyl-3,6-dioxo-1,4-cyclohexadienyl) decyl triphenylphosphonium methanesulfonate] | inhibited SARS-CoV-2 Delta variants in ALI lung cultures |  | 34 | reduction in IL-lb, IL-6, TNFa | inhibited SARS-CoV-2-associated increase in cleaved caspase 3 | reduced frequency of NK cells | reduction of lung inflammation and tissue damage | also even when added 4 hours after infection | further confirmed by ELISA | ~3 | 41
CCCCCCCCCC[P+](c1ccccc1)(c1ccccc1)c1ccccc1.[Br-] [dTPP] | potent antiviral activity | potent antiviral activity |  |  |  |  |  | reduced SARS-CoV-2 entry and had less impact on SARS-CoV-2 cytoplasmic replication |  |  | 
